This note sets out measurements from US10927123B2, “Modulators of the beta-3 adrenergic receptor useful for the treatment or prevention of disorders related thereto” (Arena Pharmaceuticals, Inc., priority 2016, dated 2021).

Usually IC50 stands for the midpoint of a concentration-inhibition curve.

Each structure is given as a SMILES string.

Chain of Beta-3 Adrenergic Receptor (P13945 whole entry, species assumed): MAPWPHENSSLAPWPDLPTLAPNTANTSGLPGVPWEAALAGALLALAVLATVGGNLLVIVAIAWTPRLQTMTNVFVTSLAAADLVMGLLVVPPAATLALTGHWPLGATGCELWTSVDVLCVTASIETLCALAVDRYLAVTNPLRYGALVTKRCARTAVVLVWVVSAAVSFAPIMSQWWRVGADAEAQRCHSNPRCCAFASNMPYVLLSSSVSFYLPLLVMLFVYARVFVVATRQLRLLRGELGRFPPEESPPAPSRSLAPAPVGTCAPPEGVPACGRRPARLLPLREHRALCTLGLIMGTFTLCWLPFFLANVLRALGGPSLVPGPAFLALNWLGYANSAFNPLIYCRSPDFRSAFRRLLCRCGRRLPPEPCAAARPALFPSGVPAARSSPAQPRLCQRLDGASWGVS

The test concerns the target Beta-3 Adrenergic Receptor (Homo sapiens (Human), UniProt P13945). Kind of test: HTRF cAMP antagonist assay (IC50 determination). Conditions: CHO-K1 cells stably expressing recombinant receptor; antagonism of isoproterenol at EC90; cAMP readout. Format: cell-based. The method, then:
HTRF cAMP assays were performed according to manufacturer's instructions (Cisbio, cAMP Dynamic 2 Assay Kit; #62AM4PEJ). CHO-K1 cells stably expressing recombinant receptor were harvested and suspended in warm PBS to make a 300,000 cells/mL stock. This cell suspension was dispensed into 384 well assay plates (PerkinElmer ProxiPlate #6008280) at 5 μL per well (1500 cells/well) along with a cAMP standard curve.
Compounds were dissolved and serially diluted (5-fold) in DMSO to generate a 10-point dose response stock. The stock was then diluted 100-fold in assay buffer (PBS containing 1 mM IBMX) before a volume of 2.5 μL was added to the cells (the final, top concentration of compound in the dose-response is typically 10 or 100 μM). After a brief incubation, 2.5 μL of isoproterenol stock, prepared at a concentration 4 times its EC90 at the receptor of interest, was added to the wells. The EC90 for isoproterenol, a beta-adrenergic agonist, was determined in separate experiments using standard methods to measure agonist potencies.
Following a 1-hour incubation at room temperature, 5 μL of cAMP-D2 Reagent diluted in Lysis Buffer was added to each well followed by 5 μL of Cryptate Reagent. Plates were further incubated at room temperature for 1 hour prior to reading. Time resolved fluorescence measurements were collected on a suitable, HTRF-capable plate reader.
Counts from the plate reader were fit to the cAMP standard curve on the assay plate in order to determine cAMP concentrations in each well, and these values were used to construct dose-response curves to obtain IC50 values.
In general terms: In TR-FRET formats the signal depends on donor and acceptor labels being close together.
With `CC(C)CNCc1ccc(-c2cccc(S(=O)(=O)N3CCC4(CC3)CC(NC[C@H](O)COc3cccc(S(C)(=O)=O)c3)CO4)c2)cc1` (stereo partly drawn) [Compound 81, (2S)-1-(8-(4′-((isobutylamino)methyl)biphenyl-3-ylsulfonyl)-1-oxa-8-azaspiro[4.5]decan-3-ylamino)-3-(3-(methylsulfonyl)phenoxy)propan-2-ol], the IC50 was determined as 27.8 nM.

Regarding `O=S(=O)(c1ccc2ncccc2c1)N1CCC2(CC1)C[C@@H](NC[C@H](O)COc1cccc(S(=O)(=O)C3(CO)CCC3)c1)CO2` [Compound 110, (S)-1-(3-(1-(hydroxymethyl)cyclobutylsulfonyl)phenoxy)-3-((R)-8-(quinolin-6-ylsulfonyl)-1-oxa-8-azaspiro[4.5]decan-3-ylamino)propan-2-ol], the IC50 amounted to 68.7 nM.

In the case of `CCn1cc(S(=O)(=O)N2CCC3(CC2)C[C@@H](NC[C@H](O)COc2cccc(S(=O)(=O)C4CC4)c2)CO3)c(=O)c2cc(C)ccc21` [Compound 317, 3-((R)-3-((S)-3-(3-(cyclopropylsulfonyl)phenoxy)-2-hydroxypropylamino)-1-oxa-8-azaspiro[4.5]decan-8-ylsulfonyl)-1-ethyl-6-methylquinolin-4(1H)-one], the half-inhibitory concentration (IC50) came out at 104 nM.

In the case of `O=S(=O)(CC1CCC1)c1cccc(OC[C@@H](O)CNC2COC3(CCN(S(=O)(=O)c4ccc5ccccc5c4)CC3)C2)c1` (stereo partly drawn) [Compound 13, (2S)-1-(3-(cyclobutylmethylsulfonyl)phenoxy)-3-(8-(naphthalen-2-ylsulfonyl)-1-oxa-8-azaspiro[4.5]decan-3-ylamino)propan-2-ol], the IC50 is 97.8 nM.

Regarding `CC(C)(C)NCc1ccc(-c2cccc(S(=O)(=O)N3CCC4(CC3)C[C@H](NC[C@H](O)COc3cccc(S(=O)(=O)C5(CO)CC5)c3)CO4)c2)cc1` [Compound 240, (S)-1-((S)-8-(4′-((tert-butylamino)methyl)biphenyl-3-ylsulfonyl)-1-oxa-8-azaspiro[4.5]decan-3-ylamino)-3-(3-(1-(hydroxymethyl)cyclopropylsulfonyl)phenoxy)propan-2-ol], the IC50 came out at 31.7 nM.

`CS(=O)(=O)c1cccc(OC[C@@H](O)CNC2COC3(CCN(S(=O)(=O)c4cccc(-c5cccnc5)c4)CC3)C2)c1` (stereo partly drawn) [Compound 63, (2S)-1-(3-(methylsulfonyl)phenoxy)-3-(8-(3-(pyridin-3-yl)phenylsulfonyl)-1-oxa-8-azaspiro[4.5]decan-3-ylamino)propan-2-ol]: the IC50 was found to be 17.2 nM.

On to `CC(=O)NCCc1ccc(-c2cccc(S(=O)(=O)N3CCC4(CC3)C[C@@H](NC[C@H](O)COc3cccc(S(=O)(=O)C5(CO)CC5)c3)CO4)c2)cc1` [Compound 191, N-(2-(3′-((R)-3-((S)-2-hydroxy-3-(3-(1-(hydroxymethyl)cyclopropylsulfonyl)phenoxy)propylamino)-1-oxa-8-azaspiro[4.5]decan-8-ylsulfonyl)biphenyl-4-yl)ethyl)acetamide], for which the concentration for half-maximal inhibition (IC50) turned out to be 440 nM.

With `CCCS(=O)(=O)c1cccc(OC[C@@H](O)CN[C@H]2COC3(CCN(S(=O)(=O)c4cnc5ccccc5c4)CC3)C2)c1` [Compound 139, (S)-1-(3-(propylsulfonyl)phenoxy)-3-((R)-8-(quinolin-3-ylsulfonyl)-1-oxa-8-azaspiro[4.5]decan-3-ylamino)propan-2-ol], the concentration for half-maximal inhibition (IC50) is 36.2 nM.

With `CCn1cc(S(=O)(=O)N2CCC3(CC2)C[C@H](NC[C@H](O)COc2cccc(S(C)(=O)=O)c2)CO3)c(=O)c2ccccc21` [Compound 338, 1-ethyl-3-((S)-3-((S)-2-hydroxy-3-(3-(methylsulfonyl)phenoxy)propylamino)-1-oxa-8-azaspiro[4.5]decan-8-ylsulfonyl)quinolin-4(1H)-one], the IC50 came to 32.2 nM.

On to `CS(=O)(=O)c1cccc(OC[C@@H](O)CNC2COC3(CCN(S(=O)(=O)c4cccc(-c5ccccn5)c4)CC3)C2)c1` (stereo partly drawn) [Compound 45, (2S)-1-(3-(methylsulfonyl)phenoxy)-3-(8-(3-(pyridin-2-yl)phenylsulfonyl)-1-oxa-8-azaspiro[4.5]decan-3-ylamino)propan-2-ol], for which the half-inhibitory concentration (IC50) worked out at 23.6 nM.

In the case of `O=S(=O)(Cc1ccccc1)c1cccc(OC[C@@H](O)CNC2COC3(CCN(S(=O)(=O)c4ccc5ccccc5c4)CC3)C2)c1` (stereo partly drawn) [Compound 20, (2S)-1-(3-(benzylsulfonyl)phenoxy)-3-(8-(naphthalen-2-ylsulfonyl)-1-oxa-8-azaspiro[4.5]decan-3-ylamino)propan-2-ol], the half-maximal inhibitory concentration (IC50) was 76.2 nM.

As for `CCNCc1ccc(-c2cccc(S(=O)(=O)N3CCC4(CC3)C[C@@H](NC[C@H](O)COc3cccc(S(=O)(=O)C5(CO)CC5)c3)CO4)c2)cc1` [Compound 268, (S)-1-((R)-8-(4′-((ethylamino)methyl)biphenyl-3-ylsulfonyl)-1-oxa-8-azaspiro[4.5]decan-3-ylamino)-3-(3-(1-(hydroxymethyl)cyclopropylsulfonyl)phenoxy)propan-2-ol], the 50% inhibitory concentration (IC50) turned out to be 138 nM.

Regarding `CS(=O)(=O)c1cccc(OC[C@@H](O)CNC2COC3(CCN(S(=O)(=O)c4ccc5occc5c4)CC3)C2)c1` (stereo partly drawn) [Compound 61, (2S)-1-(8-(benzofuran-5-ylsulfonyl)-1-oxa-8-azaspiro[4.5]decan-3-ylamino)-3-(3-(methylsulfonyl)phenoxy)propan-2-ol], the IC50 was determined as 29.8 nM.

For the molecule `CS(=O)(=O)c1cccc(OC[C@@H](O)CNC2COC3(CCN(S(=O)(=O)c4cccc(F)c4)CC3)C2)c1` (stereo partly drawn) [Compound 54, (2S)-1-(8-(3-fluorophenylsulfonyl)-1-oxa-8-azaspiro[4.5]decan-3-ylamino)-3-(3-(methylsulfonyl)phenoxy)propan-2-ol], the 50% inhibitory concentration (IC50) was 45.9 nM.

`O=S(=O)(c1cnc2c(c1)CCCO2)N1CCC2(CC1)C[C@@H](NC[C@H](O)COc1cccc(S(=O)(=O)C3(CO)CC3)c1)CO2` [Compound 284, (S)-1-((R)-8-(3,4-dihydro-2H-pyrano[2,3-b]pyridin-6-ylsulfonyl)-1-oxa-8-azaspiro[4.5]decan-3-ylamino)-3-(3-(1-(hydroxymethyl)cyclopropylsulfonyl)phenoxy)propan-2-ol]: the IC50 came out at 106 nM.

Turning to `CS(=O)(=O)Cc1cccc(OC[C@H](O)CNC2COC3(CCN(S(=O)(=O)c4ccc5ccccc5c4)CC3)C2)c1` (stereo partly drawn) [Compound 94, (2R)-1-(3-(methylsulfonylmethyl)phenoxy)-3-(8-(naphthalen-2-ylsulfonyl)-1-oxa-8-azaspiro[4.5]decan-3-ylamino)propan-2-ol], the IC50 was determined as 113 nM.

With `CCn1cc(S(=O)(=O)N2CCC3(CC2)C[C@@H](NC[C@H](O)COc2cccc(S(C)(=O)=O)c2)CO3)c(=O)c2cccc(F)c21` [Compound 322, 1-ethyl-8-fluoro-3-((R)-3-((S)-2-hydroxy-3-(3-(methylsulfonyl)phenoxy)propylamino)-1-oxa-8-azaspiro[4.5]decan-8-ylsulfonyl)quinolin-4(1H)-one], the half-inhibitory concentration (IC50) amounted to 21.8 nM.

As for `Cc1c(-c2ccc(C3(N)CC3)cc2)cccc1S(=O)(=O)N1CCC2(CC1)C[C@@H](NC[C@H](O)COc1cccc(S(=O)(=O)C3(CO)CC3)c1)CO2` [Compound 204, (S)-1-((R)-8-(4′-(1-aminocyclopropyl)-2-methylbiphenyl-3-ylsulfonyl)-1-oxa-8-azaspiro[4.5]decan-3-ylamino)-3-(3-(1-(hydroxymethyl)cyclopropylsulfonyl)phenoxy)propan-2-ol], the concentration for half-maximal inhibition (IC50) came out at 504 nM.

In the case of `CC(C)CS(=O)(=O)c1cccc(OC[C@@H](O)CN[C@H]2COC3(CCN(S(=O)(=O)c4cnc5ccccc5c4)CC3)C2)c1` [Compound 124, (S)-1-(3-(isobutylsulfonyl)phenoxy)-3-((R)-8-(quinolin-3-ylsulfonyl)-1-oxa-8-azaspiro[4.5]decan-3-ylamino)propan-2-ol], the concentration for half-maximal inhibition (IC50) amounted to 78.2 nM.

For the molecule `CC(C)CCS(=O)(=O)c1cccc(OC[C@@H](O)CNC2COC3(CCN(S(=O)(=O)c4ccc5ccccc5c4)CC3)C2)c1` (stereo partly drawn) [Compound 11, (2S)-1-(3-(isopentylsulfonyl)phenoxy)-3-(8-(naphthalen-2-ylsulfonyl)-1-oxa-8-azaspiro[4.5]decan-3-ylamino)propan-2-ol], the half-inhibitory concentration (IC50) was 35.5 nM.

On to `CCOc1ccc(-c2ccc(CN)cc2)cc1S(=O)(=O)N1CCC2(CC1)C[C@H](NC[C@H](O)COc1cccc(S(=O)(=O)C(C)C)c1)CO2` [Compound 232, (S)-1-((S)-8-(4′-(aminomethyl)-4-ethoxybiphenyl-3-ylsulfonyl)-1-oxa-8-azaspiro[4.5]decan-3-ylamino)-3-(3-(isopropylsulfonyl)phenoxy)propan-2-ol], for which the IC50 was 16.6 nM.

On to `CS(=O)(=O)c1cccc(OC[C@@H](O)CNC2COC3(CCN(S(=O)(=O)c4cccnc4)CC3)C2)c1` (stereo partly drawn) [Compound 46, (2S)-1-(3-(methylsulfonyl)phenoxy)-3-(8-(pyridin-3-ylsulfonyl)-1-oxa-8-azaspiro[4.5]decan-3-ylamino)propan-2-ol], for which the IC50 was determined as 87 nM.

As for `C[C@H]1CN(C)c2cc(S(=O)(=O)N3CCC4(CC3)C[C@H](NC[C@H](O)COc3cccc(S(=O)(=O)C5CC5)c3)CO4)cnc2O1` [Compound 277, (S)-1-(3-(cyclopropylsulfonyl)phenoxy)-3-((S)-8-((S)-1,3-dimethyl-2,3-dihydro-1H-pyrido[2,3-b][1,4]oxazin-7-ylsulfonyl)-1-oxa-8-azaspiro[4.5]decan-3-ylamino)propan-2-ol], the half-maximal inhibitory concentration (IC50) amounted to 16.5 nM.
